Measurements from EP4458977A1, “SELF-ASSEMBLING PEPTIDE AMPHIPHILES AS RETROVIRAL TRANSDUCTION ENHANCERS” (Max-Planck-Gesellschaft zur Förderung der Wissenschaften …, priority 2023, dated 2024).
Entries after “also recorded” stand apart in the source; their conditions may differ. Where a SMILES comes first, the peptide text is derived from it. Where no end group is shown, it is not given here. [ ]: non-standard residue; d: D form. The star is where a group is joined. Palmitoyl = CCCCCCCCCCCCCCCC(=O)*

How the values were obtained:
[1] = TEM of peptide assemblies (fibril formation / assembly); assay type: physicochemical; details: for TEM morphology (in words): 1 mg/mL in PBS; for Assembly without hydrophob residue: corresponding peptide without hydrophobic moiety; for Assembly: peptide amphiphile
Method: The peptides were predissolved in DMSO to a concentration of 10 mg/mL. The fibril formation was induced by further diluting the solution to a final incubation concentration of 650 µM or 1 mg/mL in PBS as indicated in the text and incubated for 1 d (1 day) at rt (room temperature, 20 °C - 25 °C). Other concentrations as described herein were achieved by further dilution of preformed fibrils.
(§1) Transmission electron microscopy (TEM) measurements, Thioflavin (ThT), zeta-potential measurements for fibril characterization were prepared and conducted according to prior art procedures. […] Fibrils were defined as distinct, if no visible structures could be identified in fluorescence and brightfield microscopy.

HIV-1 = details: for enhancement of HIV-1 infection / transduction (in words): 6.5 µM, 1.3 µM, 0.26 µM; for Infectivity enhancing N fold at 1.3 µM: relative to virus only;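 as to all read-outs here: TZM-bl reporter cells exposed to HIV-1 with peptide fibrils, infection read out as β-galactosidase luminescence, compared with virus alone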
Method: HIV-1 Infection Assay with TZM-bl cells: The effect of peptide fibrils on HIV-1 infection was studied via a luminescence assay for β-galactosidase, which was reported by TZM-bl cells upon infection. The HIV-1 infection assay was conducted in three technical replicates and repeated in three independent experiments unless stated otherwise.

[2] = Fluorescence microscopy of ThT-stained fibrils (µm-sized aggregates); assay type: physicochemical; details: 1 mg/mL stained with 50 µM ThT
Method: as §1
Fluorescence microscopy: 1 µL Fibrils (1 mg mL^-1) were stained with 9 µL, 50 µM ThT. 10 µL of the stained fibrils (0.1 mg mL^-1) were placed on a microscopy glass. Fluorescence microscopy measurements were performed on a Leica DMi8 microscope with 10x air objective and equipped with a Leica MC170 HD camera with a filter setting λem = 527/30 nm upon excitation at λex = 480/40 nm) and processed with the Leica LASX software.

[3] = ATR-FT-IR determination of β-sheet content; assay type: physicochemical; details: 1 mg/mL in PBS lyophilized; integral at 1630 cm^-1 relative to 1650-1700 cm^-1
Method: ATR-FT-IR: ATR-IR spectra acquisition and the calculation of β-sheet content were conducted according prior art procedures. Briefly, FT-IR spectra of solid samples were recorded after lyophilization of fibril solutions using a Bruker Tensor II spectrometer equipped with a diamond crystal as ATR element with a spectral resolution of 2 cm^-1, each spectrum was an average of 64 scans. The data was processed with Origin software. β-sheet amount was determined by calculating the integral of the peak at 1630 cm-1 (β-sheet) relative to the integral between 1650-1700 cm-1 (native structure) from the 2nd derivative of the FT-IR spectra.

HeLa cells = assay: Confocal laser scanning microscopy and degradation study with PA library and HeLa cells; assay type: cell-based; details: for association with cellular membranes: 2 µg added to 20.000 HeLa cells, 30 min; for degradability (in words) / Degradability / % (rel. to initial particles > 10 µm^2): HeLa cells; for degradability (in words): 3 days; for aggregate number decreases / degraded in presence of HeLa cells within 3 days / aggregate number increases: d3 relative to d0; for Degradability / % (rel. to initial particles > 10 µm^2): 3 d relative to 30 min
Method: In general, the procedure for determine whether a PA is degraded or not, is conducted by confocal laser scanning microscopy of Proteostat stained PAs which are added to Hela cells (2 µg peptide added to 20.000 cells). Microscopy is conducted at day 0 (d0, after 30 min of incubation) and at day 3 (d3, after 72 h of incubation). The number of aggregates >10 µm^2 is counted via 3D object counter in imaged in an area of 1008 µm × 1008 µm.
A PA is considered to be degradable if the number and the size of aggregates are reduced after 3 days. The efficiency is determined by the percentual degradation (aggregate number at d3 / aggregate number at d0). For the number of aggregation three technical replicates were evaluated for each sample. A large deviation represents a nonhomogeneous spatial distribution of aggregates.
Confocal laser scanning microscopy and degradation study with PA library and HeLa cells: Confocal laser scanning microscopy studies were performed for the visualization of the cell-PA interaction. HeLa cells were seeded one day prior to conducting the assay (20,000/well) in an 8-well IBIDI slide. […] The nucleus of the HeLa cells was stained with Hoechst 33342 (NucBlue™, Thermo Fisher Scientific). The peptide solution mixture was transferred to the HeLa cells and incubated for 30 min at 37°C before washing three times with PBS. […] For the evaluation of aggregate degradation, the samples were further incubated at 37°C for 3 d and analyzed without any additional washing step. […] The number of aggregates were determined by counting aggregates larger than the threshold 10 µm^2 in an area of 1008 × 1008 µm and repeated in three technical triplicates.

Row | Compound | TEM morphology (in words) [1] | TEM morphology (in words) ([1]; listed as NFYLQVNKINK) | enhancement of HIV-1 infection / transduction (in words) (HIV-1) | fluorescent, µm-sized aggregates (ThT staining) [2] | β-sheet amount [3] [%] | association with cellular membranes (HeLa cells) | degradability (in words) (HeLa cells) | aggregate number decreases / degraded in presence of HeLa cells within 3 days (HeLa cells) | Assembly without hydrophob residue [1] | Assembly [1] | infectivity enhancement at 1.3 µM concentration compared to virus only infection (in words) (HIV-1) | Infectivity enhancing N fold at 1.3 µM (HIV-1) [N fold] | enhances infectivity at 1.3 µM concentration, times more efficient compared to virus only infection (HIV-1) [times] | Degradability / % (rel. to initial particles > 10 µm^2) (HeLa cells) [%] | aggregate number increases (HeLa cells) [%]
1 | NFYLQVNKINK-NH2 [Pat46] | fibrillar morphologies | unexpectedly forming fibrils by themselves | potent enhancers of HIV-1 infection | fluorescent, µm-sized aggregates | 49 | association with cellular membranes | not efficiently degradable; also recorded: non-degradable PA | stays also similar |  |  |  |  |  |  | 
2 | CCCCCCCCCCCCCCCC(=O)NCC(=O)N[C@@H](CCCCN)C(=O)N[C@H](C(=O)NCC(=O)N[C@@H](CO)C(=O)N[C@@H](CCCCN)C(N)=O)C(C)C [Pat30, C16-GKVGSK-NH2] (Palmitoyl-GKVGSK-NH2) | fibrillar morphologies |  | do not efficiently enhance infectivity | less fluorescent, µm-sized aggregates | 41 | no association with cellular membranes |  |  | No | Yes | does not enhance infectivity | 2±1 |  |  | 
3 | CCCCCCCCCCCCCCCC(=O)N[C@@H](CC(N)=O)C(=O)N[C@@H](Cc1ccccc1)C(=O)N[C@@H](Cc1ccc(O)cc1)C(=O)N[C@@H](CC(C)C)C(=O)N[C@@H](CCC(N)=O)C(=O)N[C@H](C(=O)N[C@@H](CC(N)=O)C(=O)N[C@@H](CCCCN)C(=O)N[C@H](C(=O)N[C@@H](CC(N)=O)C(=O)N[C@@H](CCCCN)C(N)=O)[C@@H](C)CC)C(C)C [Pat27] (Palmitoyl-NFYLQVNKINK-NH2) | fibrillar morphologies |  |  | fluorescent, µm-sized aggregates | 60 | association with cellular membranes | cannot be degraded; also recorded: not efficiently degradable; also recorded: non-degradable PA |  | Yes | Yes |  | 5±1 | 5 | -123 | 123
4 | CCCCCCCCCCCCCCCC(=O)N[C@@H](C)C(=O)N[C@@H](CCC(N)=O)C(=O)N[C@@H](C)C(=O)N[C@@H](CCCCN)C(=O)N[C@@H](C)C(=O)N[C@@H](CCCCN)C(N)=O [Pat16, C16-AQAKAK-NH2] (Palmitoyl-AQAKAK-NH2) | fibrillar morphologies |  | do not efficiently enhance infectivity | fluorescent, µm-sized aggregates | 50 |  | cannot be degraded; also recorded: non-degradable PA |  | No | Yes |  | 4±1 | 4 | -83 | 83
5 | CCCCCCCCCCCCCCCC(=O)NCC(=O)NCC(=O)NCC(=O)N[C@@H](CO)C(=O)N[C@@H](CO)C(=O)N[C@@H](CCCCN)C(=O)N[C@@H](CCCCN)C(=O)N[C@@H](CCCCN)C(N)=O [Pat28] (Palmitoyl-GGGSSKKK-NH2) | fibrillar morphologies |  |  | no fluorescent, µm-sized aggregates | 26 | no association with cellular membranes |  |  | No | Yes |  | 2±1 |  |  | 
6 | CCCCCCCCCCCCCCCC(=O)N[C@@H](C(=O)N[C@@H](C(=O)N[C@@H](C(=O)N[C@H](C)C(=O)N[C@H](C)C(=O)N[C@H](C)C(=O)N[C@H](CCCCN)C(=O)N[C@H](CCCCN)C(=O)N[C@H](CCCCN)C(N)=O)C(C)C)C(C)C)C(C)C [Pat14, C16-vvvaaakkk-NH2] (Palmitoyl-[dV][dV][dV][dA][dA][dA][dK][dK][dK]-NH2) | fibrillar morphologies |  |  | fluorescent, µm-sized aggregates | 49 | association with cellular membranes | is not degraded; also recorded: cannot be degraded; also recorded: non-degradable PA |  | No | Yes |  | 7±1 | 7 | -116 | 116
7 | CCCCCCCCCCCCCCCC(=O)N[C@@H](C)C(=O)N[C@H](C(=O)N[C@@H](C)C(=O)N[C@@H](CCCCN)C(=O)N[C@@H](CCCCN)C(=O)N[C@@H](CCCCN)C(N)=O)C(C)C [Pat21, C16-AVAKKK-NH2] (Palmitoyl-AVAKKK-NH2) | fibrillar morphologies |  | no infectivity enhancement can be observed | fluorescent, µm-sized aggregates | 45 | association with cellular membranes | can be degraded; also recorded: not efficiently degradable; also recorded: degradable PA | 84% | No | Yes |  | 2±0 | 2 | 68 | 
8 | C16-disulfide-CVVVAAAKKK-NH2 (not fully specified (residue 1); printed as C16-disulfide-CVVVAAAKKK-NH2) [Pat2] | fibrillar morphologies |  | weak enhancers of HIV-1 infection | fluorescent, µm-sized aggregates | 57 | no visible association with cellular membranes |  |  | No | Yes |  | 4±2 | 4 |  | 
9 | CCCCCCCCCCCCCCCC(=O)N[C@H](C(=O)N[C@H](C(=O)N[C@@H](C)C(=O)N[C@@H](C)C(=O)N[C@@H](Cc1c[nH]cn1)C(=O)N[C@@H](Cc1c[nH]cn1)C(=O)N[C@@H](Cc1c[nH]cn1)C(N)=O)C(C)C)C(C)C [Pat24, C16-VVAAHHH-NH2] (Palmitoyl-VVAAHHH-NH2) | fibrillar morphologies |  | do not efficiently enhance infectivity | fluorescent, µm-sized aggregates | 70 | association with cellular membranes | cannot efficiently be degraded; also recorded: not efficiently degradable; also recorded: non-degradable PA | 26% | No | Yes | does not enhance infectivity | 2±0 |  | 26 | 
